Measured values taken from patent US20030148462A1, “Dual inhibition of sister chromatid separation at metaphase” (President and fellows of Harvard College, priority 2001, published 2003).

How the values were obtained:
[1] = test system: sister chromatid separation and segregation in Xenopus egg extracts; assay: Anaphase and mitotic exit in CSF-arrested Xenopus egg extracts with sperm nuclei; conditions: added 10 minutes before Ca2+
[2] = target: T1, separase Ser1126 (Homo sapiens, UniProt Q14674); assay: Ser1126-specific in vitro kinase assays with LC-MS/MS; type: biochemical; conditions: securin/separase from unsynchronized 293T cells, 1 mM ATP
T1 construct: Full-length human separase was PCR-amplified from a human fetal thymus cDNA library; made in house; host or cells: 293T cells (cotransfected, unsynchronized)
Excerpt: (A) depicts FACS and Western analyses of synchronized HeLaS3 cells undergoing mitosis. (B) depicts quantification of cell cycle distribution and phosphorylation status of separase at Ser1126 for the samples shown in (A). (C) depicts a nano-scale microcapillary LC-MS/MS analysis of native separase phosphorylation state. Shown are the selected reaction, extracted-ion chromatograms corresponding to the unphosphorylated (upper trace) and phosphorylated (bottom trace) Glu1115-Lys1130 native tryptic peptide (blue and green) and heavy internal standard (brown and red). Inset: Averaged selected reaction m/z window corresponding to the y10-ion fragment of light and heavy peptides. (D) depicts […] in vitro kinase assays. Shown is the phosphorylation status of Ser1126 in percent as determined by incubation of affinity-purified securin/separase with various pure kinases in the presence of ATP (1 mM) followed by LC-MS/MS analysis. […] Top panel: Mock treatment.
For kinase assays, the securin/separase complex was isolated from unsynchronized, transfected cells and eluted with TEV protease without prior incubation in Xenopus extracts. […] Reactions with polo and auroraA (a gift from E. A. Nigg) were carried out as described (Bischoff et al. (1998) EMBO J 17:3052; Descombes et al. (1998) EMBO J 17:1328). All kinase assays were done in the presence of 1 mM ATP.
As a substrate, overexpressed securin/separase purified from transfected, unsynchronized 293T cells was used.
Coomassie stained securin and separase bands were digested in-gel (Shevchenko et al. (1996) Anal. Chem. 68:850). Extracted peptides were separated by nano-scale microcapillary high performance liquid chromatography (HPLC) as described (Gygi et al. (1999) Mol. Cell Biol. 19:1720). Eluting peptides were ionized by electrospray ionization and analyzed by an LCQ-DECA ion trap mass spectrometer (ThermoFinnigan). Peptide ions reaching a certain threshold were automatically selected for sequence analysis by tandem mass spectrometry. Peptide sequence was determined by data-searching against the non redundant human protein database using the Sequest algorithm (Eng et al. (1994) J. Am. Soc. Mass Spectrom. 5:1579).

[3] = test system: cohesin^hSCC1; assay: In vitro separase activity assay (self-cleavage and cohesin hSCC1 cleavage) after low- or high-Δ90 extract; type: biochemical, human; conditions: for Separase self-cleavage and cohesin hSCC1 cleavage after low- versus high-Δ90 extract: low or high CDC2 activity extract
Excerpt: To address whether high CDC2 activity blocked the activity of separase, an in vitro separase activity assay was developed. Plasmids coding for human securin and tagged human separase were transfected into 293T cells as follows.
Human cohesin^hSCC1 was isolated from the a human fetal thymus cDNA library using the following primers: 5′-[…]-3′ (SEQ ID NO:8) and 5′-[…]-3′ (SEQ ID NO:9). Both separase and securin were subcloned into the multi-purpose expression vector pCS2 (various versions). The resulting plasmids were utilized for transfection into 293T cells and for in vitro expression in TNT™ reticulocyte lysate (Promega). For immunoprecipitation of separase, two types of N-terminal tags were fused to the amino terminus of separase, three HA tags (FIG. 2A) or two IgG binding domains of protein A followed by four TEV-protease cleavage sequences (ZZ-TEV4-tag; FIGS. 2B, 4B, 5, 6B to E, and 7). Both versions of separase gave essentially the same results. Site directed mutagenesis was performed using either the QuickChange kit (Stratagene) or the GeneEditor system (Promega). All mutations were confirmed by DNA sequencing of manipulated regions.
To obtain securin/separase complexes, 293T cells were cotransfected with separase and securin expression plasmids using a calcium phosphate based method and subsequently synchronized as described (Fang et al. (1998) Mol. Cell 2:163). Two days after transfection, the nocodazole-arrested cells were lysed in 20 mM Tris/HCl pH 7.7, 100 mM NaCl, 1 mM NaF, 20 mM β-glycerophosphate, 5 mM MgCl2, 0.1% Triton X100, 1 μM microcystin-LR. After ultra-centrifugation at 100,000 g, the supernatant was mixed with anti-HA agarose (3F10, Roche) or IgG-sepharose (Amersham), depending on the tag of separase. For a 10 cm dish of confluent, transfected cells (corresponding to roughly 100 μl cell pellet), 20 μl of beads were used. After rotation overnight at 4° C. the beads were washed twice with CSF-XB (Murray (1991) Methods Cell Biol. 36:581) and then incubated with various Xenopus egg extracts. To prepare low- or high-Δ90 extracts, CSF extracts were supplemented with various concentrations of Δ90. Fifteen minutes thereafter, Ca^2+ was added (0.6 mM) and the extracts were further incubated for 15 minutes before adding them to the securin/separase beads. After 1 hour, the beads were washed twice with CSF-XB, once with 30 mM Hepes/KOH pH 7.7, 30% glycerol, 25 mM NaF, 25 mM KCl, 5 mM MgCl2, 1.5 mM ATP, 1 mM EGTA, and eluted with HA peptide (1 mg/ml) or TEV-protease (2 mg/ml) in 20 to 50 μl. Two μl of separase were combined with 2 μl of in vitro translated ^35S-cohesin^hSCC1 and incubated for 1 hour at 37° C. Alternatively, 2 μl of isolated metaphase chromosomes (8.7 μg DNA per μl) were used as a substrate.
Each mutant was incubated in either low- (odd numbered lanes) or high-Δ90 extract (even numbered lanes) before analyzing separase self-cleavage by immuno-blot (top panels) and cohesin^hSCC1 cleavage by autoradiography (middle and lower panels).

[4] = test system: human metaphase chromosomes; assay: Sister chromatid separation of human metaphase chromosomes in Xenopus extracts; conditions: for Separation of sister chromatids: high concentrations of Δ90 (400 nm), human chromosomes in Xenopus extract
Procedure: CSF extracts were prepared as described (Murray (1991) Methods Cell Biol. 36:581). For sister chromatid separation assays two sources of chromosomes were used, Xenopus sperm nuclei and isolated human metaphase chromosomes. Xenopus sperm nuclei were prepared as described by Philpott et al. ((1991) Cell 65:569). When they were used, the protocol developed by Murray and colleagues was followed (Holloway et al. (1993) Cell 73:1393) with the exception that Δ90 was usually added later, about 50 minutes after CSF. Re-isolation of Xenopus chromosomes was done according to Funabiki and Murray ((2000) Cell 102:411). When human chromosomes were used, the KCl concentration was lowered to 70 mM. Δ90 and isolated securin/separase (0.1 volumes) were added 20 minutes after addition of human chromosomes. After additional 20 minutes at 20° C., Ca^2+ (0.6 mM) was added. Chromosomes were re-isolated from extracts 50 minutes thereafter. Analysis by immunofluorescence microscopy was performed as described (Wood et al. (1997) Cell 91:357). The percentage of separated chromosomes was calculated according to the following equation: % separation=(number of single chromatids/2)/[(number of single chromatids/2)+number of unseparated chromosomes].
It was next determined whether the PM-2 mutant would override the inhibition not only of cohesin cleavage but also of sister chromatid separation in high-Δ90 extracts. Since the biochemical experiments utilized human separase, the existing assay was modified to examine the separation of human metaphase chromosomes in Xenopus extracts. […] In the presence of wild type separase (supplied as purified securin/separase complexes) and high concentrations of Δ90 (400 nm), only 2.7% of the chromosomes separated (FIG. 5A, row 2). […] In contrast, PM-2 (Ser 1126) led to maximal separation of sister chromatids (68%) under the same conditions (FIG. 5A, row 5). Similar results were obtained with PM-2/4 and PM-2^Asp; they caused 68% and 66% separation, respectively (FIG. 5A, rows 4 and 7). A Western blot for separase was performed to assure that similar amounts of the various separases had been used in the experiment (FIG. 5B).

[5] = test system: separase; assay: Re-inhibition of pre-activated separase by recombinant securin (cohesin hSCC1 cleavage); type: biochemical, human; conditions: equal amounts of separase
Procedure: FIGS. 7A-7C depict the independent inhibition of separase activity by phosphorylation of separase and by binding of securin. (A) depicts a Western blot (upper panel) and cohesin^hSCC1 cleavage activity using isolated chromosomes as substrate (lower panel). Lane 2: Consecutive treatment of separase with high-Δ90 extract twice. (B) depicts separase that had been pre-activated in low-Δ90 extract that was eluted and incubated with recombinant securin (lanes 2 and 3) or reference buffer (lane 1) for one hour on ice. Subsequently, its cleavage activity towards in vitro translated ^35S-cohesin^hSCC1 was tested (upper panel). The separase concentration in each reaction was 4 nM, as estimated by Coomassie staining. To compare wild type separase with PM-2/4 mutant separase in its ability to bind securin the same experiment was repeated with PM-2/4 (lower panel). Roughly equal separase concentrations in both cases were assured by comparative immunoblotting (see FIG. 4B, lanes 15 and 17). (C) depicts a model for the dual inhibition of separase in metaphase and its activation at anaphase onset. PPase denotes an unknown protein phosphatase that is proposed to act on phosphorylated separase.
To determine whether securin can inhibit separase independent of the phosphorylation state of separase, and whether separase that has already been activated and has therefore cleaved itself be re-inhibited by either of the two inhibitory mechanisms, active separase was generated by treating a securin/separase complex with a low-Δ90 extract (L; FIG. 7) to degrade securin and dephosphorylate separase. […] Active separase on beads was then incubated with either recombinant securin or a high-Δ90 extract and assayed for its ability to cleave cohesin^hSCC1. […]

[6] = test system: T2, recombinant securin
T2 sequence (O95997 2-202, species assumed, looked up): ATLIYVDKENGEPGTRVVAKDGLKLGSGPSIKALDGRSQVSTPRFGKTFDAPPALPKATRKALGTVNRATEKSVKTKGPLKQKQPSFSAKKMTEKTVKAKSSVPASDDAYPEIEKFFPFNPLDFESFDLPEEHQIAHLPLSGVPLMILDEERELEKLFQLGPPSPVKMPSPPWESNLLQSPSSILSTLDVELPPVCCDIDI

T1 sequence (Q14674 whole entry): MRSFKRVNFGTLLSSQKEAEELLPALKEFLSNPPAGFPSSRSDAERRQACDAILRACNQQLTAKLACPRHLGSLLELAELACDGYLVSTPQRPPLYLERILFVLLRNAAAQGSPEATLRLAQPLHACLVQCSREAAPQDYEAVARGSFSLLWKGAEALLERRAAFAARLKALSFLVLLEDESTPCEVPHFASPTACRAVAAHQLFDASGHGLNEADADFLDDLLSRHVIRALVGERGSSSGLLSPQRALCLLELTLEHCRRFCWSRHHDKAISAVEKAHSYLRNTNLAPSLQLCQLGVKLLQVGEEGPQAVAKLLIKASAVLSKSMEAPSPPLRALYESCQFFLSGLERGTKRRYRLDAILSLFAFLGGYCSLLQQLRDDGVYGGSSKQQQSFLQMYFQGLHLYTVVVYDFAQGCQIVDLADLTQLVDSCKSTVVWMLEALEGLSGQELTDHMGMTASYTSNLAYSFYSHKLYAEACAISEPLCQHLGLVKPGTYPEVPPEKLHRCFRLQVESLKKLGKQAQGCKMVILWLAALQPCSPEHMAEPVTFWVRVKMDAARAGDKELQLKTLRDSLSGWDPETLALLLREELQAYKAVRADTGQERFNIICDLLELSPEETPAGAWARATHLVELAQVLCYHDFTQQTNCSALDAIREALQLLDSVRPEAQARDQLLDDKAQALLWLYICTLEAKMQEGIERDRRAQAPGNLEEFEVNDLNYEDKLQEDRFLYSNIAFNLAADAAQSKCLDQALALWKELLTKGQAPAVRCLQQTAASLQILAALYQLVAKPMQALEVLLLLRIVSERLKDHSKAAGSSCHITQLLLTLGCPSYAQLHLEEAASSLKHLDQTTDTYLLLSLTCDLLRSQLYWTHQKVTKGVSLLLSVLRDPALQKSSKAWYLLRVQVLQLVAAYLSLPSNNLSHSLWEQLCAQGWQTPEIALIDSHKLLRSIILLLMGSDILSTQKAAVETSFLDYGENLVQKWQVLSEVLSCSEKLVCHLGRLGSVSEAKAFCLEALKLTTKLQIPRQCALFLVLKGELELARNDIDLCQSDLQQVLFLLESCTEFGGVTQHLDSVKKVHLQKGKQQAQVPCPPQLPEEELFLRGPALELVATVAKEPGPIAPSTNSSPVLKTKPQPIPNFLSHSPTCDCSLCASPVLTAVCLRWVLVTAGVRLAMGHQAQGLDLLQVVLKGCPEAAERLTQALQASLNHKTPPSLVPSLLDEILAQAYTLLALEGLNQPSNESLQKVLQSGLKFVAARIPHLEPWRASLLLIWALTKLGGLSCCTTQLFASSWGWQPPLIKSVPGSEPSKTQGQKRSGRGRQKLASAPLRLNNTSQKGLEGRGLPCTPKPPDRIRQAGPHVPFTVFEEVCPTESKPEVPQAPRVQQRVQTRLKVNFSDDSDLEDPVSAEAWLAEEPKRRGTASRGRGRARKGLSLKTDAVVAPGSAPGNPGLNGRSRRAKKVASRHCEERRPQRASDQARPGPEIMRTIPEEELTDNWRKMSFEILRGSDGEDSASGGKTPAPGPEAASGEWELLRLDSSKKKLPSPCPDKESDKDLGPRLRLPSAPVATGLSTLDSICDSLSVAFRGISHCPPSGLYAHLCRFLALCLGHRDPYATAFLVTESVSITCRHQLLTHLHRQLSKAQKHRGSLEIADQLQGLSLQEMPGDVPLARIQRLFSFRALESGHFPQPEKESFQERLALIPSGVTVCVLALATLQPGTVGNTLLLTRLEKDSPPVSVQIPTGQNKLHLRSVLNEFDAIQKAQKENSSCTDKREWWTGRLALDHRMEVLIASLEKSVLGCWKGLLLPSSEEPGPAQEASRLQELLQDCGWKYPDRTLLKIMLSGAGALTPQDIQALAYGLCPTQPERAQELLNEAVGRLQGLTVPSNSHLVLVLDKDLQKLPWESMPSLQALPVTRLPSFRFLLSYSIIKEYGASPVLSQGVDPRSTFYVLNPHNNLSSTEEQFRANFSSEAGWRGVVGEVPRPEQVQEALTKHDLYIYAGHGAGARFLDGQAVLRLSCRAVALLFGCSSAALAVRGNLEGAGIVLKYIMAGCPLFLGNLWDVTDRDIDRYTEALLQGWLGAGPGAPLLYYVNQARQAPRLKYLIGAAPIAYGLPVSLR
T1 sequence (O95997 whole entry partner): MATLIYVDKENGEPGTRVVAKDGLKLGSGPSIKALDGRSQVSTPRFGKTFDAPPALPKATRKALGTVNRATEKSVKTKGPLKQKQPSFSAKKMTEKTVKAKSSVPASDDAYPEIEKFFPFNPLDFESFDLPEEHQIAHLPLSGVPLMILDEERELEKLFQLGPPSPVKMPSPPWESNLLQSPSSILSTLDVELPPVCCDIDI

| Phosphorylation of Ser1126 by kinase [2] | Separase self-cleavage and cohesin hSCC1 cleavage after low- versus high-Δ90 extract [3] | Compound | Separation of sister chromatids [4] [%] | further results |
| --- | --- | --- | --- | --- |
|  |  | CC[C@H](CO)Nc1nc(NCc2ccccc2)c2ncn(C(C)C)c2n1 [roscovitine] |  | Rescue of anaphase (sister separation and segregation) blocked in high-Δ90 extract [1]: rescued both events with high efficiency |
| not at all |  | CaMKII: calmodulin-dependent kinase II, from New England Biolabs |  |  |
| efficiently phosphorylated |  | MAPK (ERK2): pure kinase from New England Biolabs |  |  |
|  | no longer inhibited | PM-2/4: separase phospho-mutant, sites 2 (Ser1126) and 4 (Thr1346) changed to alanine | 68 | Separase activity relative to wild type after low-Δ90 extract ([3]; low-Δ90 extract): higher than that of wild type separase; Maximal degree of sister chromatid separation ([4]; low-Δ90 extract plus saturating level of PM-2/4, data not shown): about 70%; Inhibition of separase by securin, wild type versus mutant [5]: inhibited at the same concentration of securin |
|  | still largely resistant to inhibition | PM-2: single site separase phospho-mutant, site 2 (Ser1126) changed to alanine | 68 | Separase activity relative to wild type after low-Δ90 extract ([3]; low-Δ90 extract): higher than that of wild type separase |
|  | still largely resistant to inactivation | PM-2^Asp: separase with mutation of Ser1126 to aspartate | 66 |  |
| not at all |  | auroraA: pure kinase, a gift from E. A. Nigg |  |  |
|  |  | catalytically inactive separase: mutant separase in which the catalytic cysteine residue was replaced by a serine | 0.4 | Separase self-cleavage ([3]; low-Δ90 extract): not cleaved |
|  |  | human separase phospho-mutant PM-2/4 (Ser1126 and Thr1346 changed to alanine), with N-terminal ZZ-TEV4-tag |  | cohesin^hSCC1 cleavage by pre-activated separase [6]: both were inhibited at the same concentration of securin |
| not at all |  | polo: pure kinase, a gift from E. A. Nigg |  |  |

| Compound | Phosphorylation of Ser1126 by kinase [2] | Separase self-cleavage and cohesin hSCC1 cleavage after low- versus high-Δ90 extract [3] | Separation of sister chromatids [4] [%] | further results |
| --- | --- | --- | --- | --- |
| PM-4: single site separase phospho-mutant, site 4 (Thr1346) changed to alanine |  | inactivated by high CDC2 activity albeit less so than wild type separase | 38 | Separase activity relative to wild type after low-Δ90 extract ([3]; low-Δ90 extract): higher than that of wild type separase |
| wild type separase: human separase protein (SEQ ID NO:3), tagged, purified as securin/separase complex from 293T cells |  | efficiently at low but not at high CDC2 activity | 2.7 | Inhibition of separase by securin, wild type versus mutant [5]: inhibited at the same concentration of securin |
